US20240366564A1, “Use of Chlorophyll Derivatives for the Treatment of SARS-CoV-2 Infection” (priority 2021, published 2024)

Experiments:
[1] = tested on: SARS-CoV-2 alpha variant (B.1.1.7 lineage); format: cell-based
[2] = tested on: SARS-CoV-2 USA-WA1/2020 virus; format: cell-based

C=Cc1c(C)c2cc3nc(c4c5[nH]c(cc6nc(cc1[nH]2)C(C)=C6CC)c(C)c5C(=O)[C@@H]4C(=O)OC)[C@@H](CCC(=O)O)[C@@H]3C [Pheophorbide A]
effect of photoactivation on inhibition of infection [1]: enhanced with photoactivation
inhibition of SARS-CoV-2 infection in culture [1]: significantly inhibits
inhibition of SARS-CoV-2 infection, summary of FIGS. 5-10 [2]: inhibits SARS-CoV-2 infection in a dose-dependent manner
